Test results from ChEMBL document CHEMBL3885881, “DrugMatrix”.
Where “and” joins values, the source holds several entries; their conditions need not be identical. Identical values can stand only once.

Species on record: Rattus norvegicus
Experiment: DrugMatrix - Regimen: Daily Repeat
Type: toxicity, organism-based, Sprague-Dawley
Parameters: regimen Daily Repeat, gender Male, age 6-8 weeks
Settings: in vivo, ip, route intraperitoneal, vehicle 100 % SALINE; for ABSOLUTE BASOPHIL / ABSOLUTE EOSINOPHIL / ABSOLUTE LYMPHOCYTE / ABSOLUTE MONOCYTE / ABSOLUTE SEGMENTED NEUTROPHIL / BASOPHIL / EOSINOPHIL / ERYTHROCYTE COUNT / HEMATOCRIT / HEMOGLOBIN / LEUKOCYTE COUNT / LYMPHOCYTE / MEAN CORPUSCULAR HEMOGLOBIN / MEAN CORPUSCULAR HEMOGLOBIN CONCENTRATION / MEAN CORPUSCULAR VOLUME / MONOCYTE / NEUTROPHIL / PLATELET COUNT: tissue Blood; for ALANINE AMINOTRANSFERASE / ALBUMIN / ALKALINE PHOSPHATASE / ASPARTATE AMINOTRANSFERASE / BLOOD UREA NITROGEN / CARBON DIOXIDE / CHLORIDE / CHOLESTEROL / CREATINE PHOSPHOKINASE / CREATININE / GLUCOSE / LACTATE DEHYDROGENASE / LIPASE / PHOSPHORUS / POTASSIUM / SODIUM / TOTAL BILIRUBIN / TOTAL PROTEIN / URIC ACID: tissue Plasma
[1] = 0 mg/kg, 120 h, dose level Control, time 5 day
[2] = 0 mg/kg, […], dose level Control, time 14 day
[3] = 0 mg/kg, […], dose level Control, time 28 day
[4] = 40 mg/kg, 120 h, dose level High, time 5 day
[5] = 40 mg/kg, […], dose level High, time 14 day
[6] = 40 mg/kg, […], dose level High, time 28 day

## NC[C@H]1O[C@H](O[C@H]2[C@H](O)[C@@H](O[C@H]3O[C@H](CO)[C@@H](O)[C@H](N)[C@H]3O)[C@H](N)C[C@@H]2N)[C@H](N)C[C@@H]1O [TOBRAMYCIN]
[1]
  ABSOLUTE BASOPHIL: 32 cells/µL
  ABSOLUTE EOSINOPHIL: 110 cells/µL
  ABSOLUTE LYMPHOCYTE: 6630 cells/µL
  ABSOLUTE MONOCYTE: 140 cells/µL
  ABSOLUTE SEGMENTED NEUTROPHIL: 1170 cells/µL
  BASOPHIL: 0.38% and 0.35%
  EOSINOPHIL: 1.28% and 0.62%
  ERYTHROCYTE COUNT: 7.45 x10E6/uL and 7.26 x10E6/uL
  HEMATOCRIT: 45.74% and 47.97%
  HEMOGLOBIN: 14.72 G/DL and 15.38 G/DL
  LEUKOCYTE COUNT: 8.11 x10E3/uL and 8.68 x10E3/uL
  LYMPHOCYTE: 81.3% and 86.77%
  MEAN CORPUSCULAR HEMOGLOBIN: 19.76 pg and 21.18 pg
  MEAN CORPUSCULAR HEMOGLOBIN CONCENTRATION: 32.16 G/DL and 32.05 G/DL
  MEAN CORPUSCULAR VOLUME: 61.38 fL and 66.15 fL
  MONOCYTE: 1.76% and 1.57%
  NEUTROPHIL: 14.9% and 9.53%
  PLATELET COUNT: 1322.4 x10E3/uL and 1786 x10E3/uL
  ALANINE AMINOTRANSFERASE: 25.8 u/L and 20.5 u/L
  ALBUMIN: 3.64 G/DL and 4.35 G/DL
  ALKALINE PHOSPHATASE: 233.6 u/L and 300 u/L
  ASPARTATE AMINOTRANSFERASE: 81.4 u/L and 86.75 u/L
  BLOOD UREA NITROGEN: 14.4 mg/dL and 17 mg/dL
  CARBON DIOXIDE: 29 mmol/L
  CHLORIDE: 105.6 MEQ/L and 106.25 MEQ/L
  CHOLESTEROL: 69.2 mg/dL and 51.25 mg/dL
  CREATINE PHOSPHOKINASE: 384.75 u/L
  CREATININE: 0.56 mg/dL and 0.47 mg/dL
  GLUCOSE: 125.4 mg/dL and 128.75 mg/dL
  LACTATE DEHYDROGENASE: 105.4 u/L and 145 u/L
  LIPASE: 22.4 u/L and 13.25 u/L
  PHOSPHORUS: 11.48 mg/dL and 11.8 mg/dL
  POTASSIUM: 5.52 MEQ/L and 6.58 MEQ/L
  SODIUM: 147 MEQ/L and 151 MEQ/L
  TOTAL BILIRUBIN: 0.2 mg/dL and 0.33 mg/dL
  TOTAL PROTEIN: 6.1 G/DL and 6.53 G/DL
  URIC ACID: 1.06 mg/dL and 1.95 mg/dL
[2]
  ABSOLUTE BASOPHIL: 130 cells/µL
  ABSOLUTE EOSINOPHIL: 140 cells/µL
  ABSOLUTE LYMPHOCYTE: 13500 cells/µL
  ABSOLUTE MONOCYTE: 400 cells/µL
  ABSOLUTE SEGMENTED NEUTROPHIL: 2330 cells/µL
  HEMATOCRIT: 45.98%
  CARBON DIOXIDE: 25 mmol/L
[3]
  ABSOLUTE BASOPHIL: 91 cells/µL
  ABSOLUTE EOSINOPHIL: 110 cells/µL
  ABSOLUTE LYMPHOCYTE: 9910 cells/µL
  ABSOLUTE MONOCYTE: 210 cells/µL
  ABSOLUTE SEGMENTED NEUTROPHIL: 1560 cells/µL
  BASOPHIL: 0.77%
  EOSINOPHIL: 0.92%
  ERYTHROCYTE COUNT: 8.21 x10E6/uL
  HEMATOCRIT: 47.53%
  HEMOGLOBIN: 15.65 G/DL
  LEUKOCYTE COUNT: 11.91 x10E3/uL
  LYMPHOCYTE: 83.34%
  MEAN CORPUSCULAR HEMOGLOBIN: 19.07 pg
  MEAN CORPUSCULAR HEMOGLOBIN CONCENTRATION: 32.93 G/DL
  MEAN CORPUSCULAR VOLUME: 57.9 fL
  MONOCYTE: 1.68%
  NEUTROPHIL: 12.97%
  PLATELET COUNT: 1323.8 x10E3/uL
  ALANINE AMINOTRANSFERASE: 30 u/L
  ALBUMIN: 3.71 G/DL
  ALKALINE PHOSPHATASE: 186.8 u/L
  ASPARTATE AMINOTRANSFERASE: 78.2 u/L
  BLOOD UREA NITROGEN: 14.2 mg/dL
  CHLORIDE: 105.4 MEQ/L
  CHOLESTEROL: 44.9 mg/dL
  CREATINE PHOSPHOKINASE: 334.3 u/L
  CREATININE: 0.6 mg/dL
  GLUCOSE: 147.2 mg/dL
  LACTATE DEHYDROGENASE: 123.1 u/L
  LIPASE: 9.6 u/L
  PHOSPHORUS: 10.01 mg/dL
  POTASSIUM: 6.57 MEQ/L
  SODIUM: 149.5 MEQ/L
  TOTAL BILIRUBIN: 0.21 mg/dL
  TOTAL PROTEIN: 6.66 G/DL
  URIC ACID: 1.26 mg/dL
[4]
  ABSOLUTE BASOPHIL: 78 cells/µL
  ABSOLUTE EOSINOPHIL: 120 cells/µL
  ABSOLUTE LYMPHOCYTE: 8040 cells/µL
  ABSOLUTE MONOCYTE: 210 cells/µL
  ABSOLUTE SEGMENTED NEUTROPHIL: 920 cells/µL
  BASOPHIL: 0.78% and 0.42%
  EOSINOPHIL: 1.32% and 0.7%
  ERYTHROCYTE COUNT: 7.61 x10E6/uL and 7.29 x10E6/uL
  HEMATOCRIT: 45.66% and 46.27%
  HEMOGLOBIN: 15.22 G/DL and 14.92 G/DL
  LEUKOCYTE COUNT: 9.41 x10E3/uL and 6.74 x10E3/uL
  LYMPHOCYTE: 84.78% and 87.65%
  MEAN CORPUSCULAR HEMOGLOBIN: 20.04 pg and 20.48 pg
  MEAN CORPUSCULAR HEMOGLOBIN CONCENTRATION: 33.38 G/DL and 32.25 G/DL
  MEAN CORPUSCULAR VOLUME: 60.02 fL and 63.45 fL
  MONOCYTE: 2.34% and 1.52%
  NEUTROPHIL: 10.36% and 8.62%
  PLATELET COUNT: 1436.6 x10E3/uL and 1523 x10E3/uL
  ALANINE AMINOTRANSFERASE: 32.4 u/L and 20.5 u/L
  ALBUMIN: 3.42 G/DL and 4.17 G/DL
  ALKALINE PHOSPHATASE: 217.6 u/L and 314.25 u/L
  ASPARTATE AMINOTRANSFERASE: 80.2 u/L and 91.75 u/L
  BLOOD UREA NITROGEN: 14.8 mg/dL and 15.25 mg/dL
  CARBON DIOXIDE: 25.75 mmol/L
  CHLORIDE: 109.8 MEQ/L and 108.25 MEQ/L
  CHOLESTEROL: 58.4 mg/dL and 56 mg/dL
  CREATINE PHOSPHOKINASE: 257.6 u/L and 601.5 u/L
  CREATININE: 0.52 mg/dL and 0.5 mg/dL
  GLUCOSE: 127.2 mg/dL and 121.75 mg/dL
  LACTATE DEHYDROGENASE: 84.6 u/L and 185.75 u/L
  LIPASE: 17 u/L and 8.25 u/L
  PHOSPHORUS: 10.22 mg/dL and 12.03 mg/dL
  POTASSIUM: 6.26 MEQ/L and 5.68 MEQ/L
  SODIUM: 151.2 MEQ/L and 152 MEQ/L
  TOTAL BILIRUBIN: 0.14 mg/dL and 0.3 mg/dL
  TOTAL PROTEIN: 5.84 G/DL and 6.38 G/DL
  URIC ACID: 0.98 mg/dL and 1.82 mg/dL
[5]
  ABSOLUTE BASOPHIL: 120 cells/µL
  ABSOLUTE EOSINOPHIL: 60 cells/µL
  ABSOLUTE LYMPHOCYTE: 7970 cells/µL
  ABSOLUTE MONOCYTE: 180 cells/µL
  ABSOLUTE SEGMENTED NEUTROPHIL: 970 cells/µL
  CARBON DIOXIDE: 24 mmol/L
[6]
  ABSOLUTE BASOPHIL: 110 cells/µL
  ABSOLUTE EOSINOPHIL: 140 cells/µL
  ABSOLUTE LYMPHOCYTE: 11000 cells/µL
  ABSOLUTE MONOCYTE: 270 cells/µL
  ABSOLUTE SEGMENTED NEUTROPHIL: 2010 cells/µL
  BASOPHIL: 0.75%
  EOSINOPHIL: 1.01%
  ERYTHROCYTE COUNT: 8.16 x10E6/uL
  HEMATOCRIT: 47.35%
  HEMOGLOBIN: 15.56 G/DL
  LEUKOCYTE COUNT: 13.61 x10E3/uL
  LYMPHOCYTE: 82.08%
  MEAN CORPUSCULAR HEMOGLOBIN: 19.08 pg
  MEAN CORPUSCULAR HEMOGLOBIN CONCENTRATION: 32.87 G/DL
  MEAN CORPUSCULAR VOLUME: 58.02 fL
  MONOCYTE: 1.93%
  NEUTROPHIL: 13.77%
  PLATELET COUNT: 1300.9 x10E3/uL
  ALANINE AMINOTRANSFERASE: 28.5 u/L
  ALBUMIN: 3.56 G/DL
  ALKALINE PHOSPHATASE: 137.2 u/L
  ASPARTATE AMINOTRANSFERASE: 79.3 u/L
  BLOOD UREA NITROGEN: 16.3 mg/dL
  CHLORIDE: 108.2 MEQ/L
  CHOLESTEROL: 59.4 mg/dL
  CREATINE PHOSPHOKINASE: 132.4 u/L
  CREATININE: 0.68 mg/dL
  GLUCOSE: 127.2 mg/dL
  LACTATE DEHYDROGENASE: 83.6 u/L
  LIPASE: 12.4 u/L
  PHOSPHORUS: 8.3 mg/dL
  POTASSIUM: 5.48 MEQ/L
  SODIUM: 152.3 MEQ/L
  TOTAL BILIRUBIN: 0.18 mg/dL
  TOTAL PROTEIN: 6.53 G/DL
  URIC ACID: 0.96 mg/dL
